# Values quoted from earlier work in patent US20110257192A1, “COMPOUND FOR TREATMENT OF RESPIRATORY CONDITION OR DISEASE” (BIOTA SCIENTIFIC MANAGEMENT PTY LTD, priority 2010, published 2011).
# Settings: administered orally
smiles,measurement,value
Cc1cc(CCCOc2c(C)cc(-c3noc(C(F)(F)F)n3)cc2C)on1 [pleconaril],effect on asthma exacerbation,did not have an effect on asthma exacerbation
